Article PMC4642525, “Conjugates of γ-Carbolines and Phenothiazine as new selective inhibitors of butyrylcholinesterase and blockers of NMDA receptors for Alzheimer Disease” (Scientific Reports, 2015)
“Also recorded” adds a separate entry of the source. Read-outs that look alike come from different tables or passages of the source.

Columns and labels:
[1] = target: T1, Acetylcholinesterase (AChE, EC 3.1.1.7, from human erythrocyte) (Homo sapiens, UniProt P22303); assay: biochemical; type: biochemical
T1 construct: Acetylcholinesterase (AChE, EC 3.1.1.7, from human erythrocyte); purchased Sigma-Aldrich (Germany); host or cells: human erythrocytes
T1 sequence (P22303 other isoform, or with tags, fused parts or gaps): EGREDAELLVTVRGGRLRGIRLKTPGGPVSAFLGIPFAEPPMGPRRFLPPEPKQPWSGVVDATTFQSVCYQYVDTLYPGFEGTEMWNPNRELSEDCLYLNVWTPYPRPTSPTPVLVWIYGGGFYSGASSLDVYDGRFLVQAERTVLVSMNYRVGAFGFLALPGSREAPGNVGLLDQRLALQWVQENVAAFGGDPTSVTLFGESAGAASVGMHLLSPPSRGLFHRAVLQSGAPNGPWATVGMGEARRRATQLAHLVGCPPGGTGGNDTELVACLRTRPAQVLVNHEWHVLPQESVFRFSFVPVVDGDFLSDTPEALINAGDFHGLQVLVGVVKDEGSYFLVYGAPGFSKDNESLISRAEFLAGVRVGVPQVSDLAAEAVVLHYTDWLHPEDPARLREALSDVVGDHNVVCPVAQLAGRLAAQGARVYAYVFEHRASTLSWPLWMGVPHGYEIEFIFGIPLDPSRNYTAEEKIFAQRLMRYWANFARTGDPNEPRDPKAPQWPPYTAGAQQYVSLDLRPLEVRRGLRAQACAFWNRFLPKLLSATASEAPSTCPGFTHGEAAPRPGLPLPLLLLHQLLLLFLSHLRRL
Protocol: (§1) Acetylcholinesterase (AChE, EC 3.1.1.7, from human erythrocyte), butyrylcholinesterase (BChE, EC 3.1.1.8, from equine serum), carboxylesterase (CaE, EC 3.1.1.1, from porcine liver), acetylthiocholine iodide (ATCh), butylthiocholine iodide (BTCh), 5,5´-dithiobis-(2-nitrobenzoic acid) (DTNB), 4-nitrophenyl acetate (4-NPA), were purchased from Sigma-Aldrich (Germany).
(§2) AChE and BChE activities were measured by the method of Ellman and coworkers as described earlier. The assay solution consisted of 0.1 M K/Na phosphate buffer pH 7.5, 25 °C with the addition of 0.33 mM DTNB, 0.02 unit/mL of AChE or BChE and 1 mM of substrate (ATCh or BTCh, respectively). Assays were carried out with a blank containing all components except ATCh and BTCh in order to account for non-enzymatic reaction.
(§3) The tested compounds were dissolved in DMSO; the incubation mixture contained 2% of the solvent. […] The test compounds were added to the assay solution and preincubated at 25 °C with the enzymes for 10 min followed by the addition of substrate. A parallel control was made for the assay solution with no inhibitor. Measurements were performed in a BioRad Benchmark Plus microplate spectrophotometer (France). Each experiment was performed in triplicate. The results were expressed as the mean ± SEM. The reaction rates in the presence and absence of inhibitor were compared, and the percent of residual enzyme activity due to the presence of test compounds was calculated.

[2] = target: T2, butyrylcholinesterase (BChE, EC 3.1.1.8, from equine serum) (Equus caballus, UniProt P81908); assay: biochemical; type: biochemical
T2 construct: butyrylcholinesterase (BChE, EC 3.1.1.8, from equine serum); purchased Sigma-Aldrich (Germany); host or cells: equine serum
T2 sequence (P81908 whole entry): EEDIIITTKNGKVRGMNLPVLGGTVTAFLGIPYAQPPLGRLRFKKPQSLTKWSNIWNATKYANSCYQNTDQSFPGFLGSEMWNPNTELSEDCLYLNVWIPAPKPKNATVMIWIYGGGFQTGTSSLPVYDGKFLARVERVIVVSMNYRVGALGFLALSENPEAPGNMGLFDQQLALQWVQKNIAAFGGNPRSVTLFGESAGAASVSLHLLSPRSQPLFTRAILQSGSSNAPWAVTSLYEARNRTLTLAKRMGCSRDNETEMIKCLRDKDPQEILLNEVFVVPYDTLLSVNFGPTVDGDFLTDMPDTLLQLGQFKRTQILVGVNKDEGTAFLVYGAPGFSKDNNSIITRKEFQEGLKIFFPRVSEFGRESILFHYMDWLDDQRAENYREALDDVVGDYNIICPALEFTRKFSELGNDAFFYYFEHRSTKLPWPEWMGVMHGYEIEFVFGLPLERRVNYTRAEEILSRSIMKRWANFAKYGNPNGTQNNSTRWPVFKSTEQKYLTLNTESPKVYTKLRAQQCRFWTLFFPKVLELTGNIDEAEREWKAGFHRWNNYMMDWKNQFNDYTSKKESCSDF
Protocol: as §1, §2, §3

[3] = target: T2, butyrylcholinesterase (BChE, EC 3.1.1.8, from equine serum); assay: biochemical; type: biochemical; conditions: for αKi (non-competitive inhibition constant) / Ki: BChE, means ± SEM, at least three experiments; for Ki: read-out: Ki (competitive inhibition constant); for type of BChE inhibition: Lineweaver-Burk analysis
Protocol: The test compounds were preincubated with the enzymes at 25 °C for 10 min, followed by the addition of the substrates. Parallel controls were made for an assay of the rate of hydrolysis of the same concentrations of substrates in the solutions with no inhibitor. The kinetic parameters of substrate hydrolysis were determined. Measurements were performed in a BioRad Benchmark Plus microplate spectrophotometer (France). Each experiment was performed in triplicate.

[4] = target: T3, МК-801 binding site of NMDA receptor (Rattus norvegicus, UniProt P35439); assay: Radioligand binding, [3H]MK-801 site of NMDA receptor, hippocampal membranes; conditions: for % of [3H]МК-801 blockade at 100 μM of compound: 100 μM compound
T3 construct: A membrane preparation of hippocampus for radioligand analysis was prepared; from tissue; host or cells: rat hippocampal membranes
Protocol: (§4) Effect of test compounds on the radioligand binding to NMDA receptors was determined by using a modified method as reported earlier by Zhou L-M and coworkers. Two radioactive ligands were used: [^3H] MK-801 (dizocilpine) with a specific activity of 210 Ci/mmol binding to all isolated NMDA receptors, and [^3H] ifenprodil with a specific activity of 79 Ci/mmol binding only to NMDA receptors containing the NR2B subunit.
(§5) A membrane preparation of hippocampus for radioligand analysis was prepared by the techniques described previously. The obtained membrane pellet was resuspended in a work buffer (5 mM HEPES/4.5 mM Tris buffer, pH 7.6) in a ratio of 1:5, and stored in liquid nitrogen. The reaction mixture (the final volume of 0.5 ml) contained 200 μl of the working buffer, 50 μl of 50 nM radioligand solution and 250 μl of the membrane suspension. Nonspecific binding was determined in the presence of 50 μl of […] of unlabeled ligand.
(§6) For binding study, the reaction mixture was incubated at room temperature for 2 hours. After incubation, the samples were filtered through the glass-fiber filters GF/B (Whatman), washed with the work buffer, dried and transferred to scintillation vials to which 5 ml of scintillation fluid was added containing 4g diphenyl oxazole (PPO), 0.2g diphenyloxazoil benzene (POPOP) and 1 liter of toluene. Radioactivity was determined in the scintillation counter TriCarb2800 TR (PerkinElmer, Packard, USA) with counting efficiency of about 65%.
(§7) Investigation of the effect of the tested compounds on the binding of [^3H]

[5] = target: T4, ifenprodil binding site of NMDA receptor (NR2B subunit containing) (Rattus norvegicus, UniProt P35439+Q00960); assay: Radioligand binding, [3H]ifenprodil site of NMDA receptor, hippocampal membranes; conditions: for % of [3H]ifenprodil blockade at 100 μM of compound: 100 μM compound
T4 construct: A membrane preparation of hippocampus for radioligand analysis was prepared; from tissue; host or cells: rat hippocampal membranes
T4 sequence (Q00960 27-1482, other chains not shown): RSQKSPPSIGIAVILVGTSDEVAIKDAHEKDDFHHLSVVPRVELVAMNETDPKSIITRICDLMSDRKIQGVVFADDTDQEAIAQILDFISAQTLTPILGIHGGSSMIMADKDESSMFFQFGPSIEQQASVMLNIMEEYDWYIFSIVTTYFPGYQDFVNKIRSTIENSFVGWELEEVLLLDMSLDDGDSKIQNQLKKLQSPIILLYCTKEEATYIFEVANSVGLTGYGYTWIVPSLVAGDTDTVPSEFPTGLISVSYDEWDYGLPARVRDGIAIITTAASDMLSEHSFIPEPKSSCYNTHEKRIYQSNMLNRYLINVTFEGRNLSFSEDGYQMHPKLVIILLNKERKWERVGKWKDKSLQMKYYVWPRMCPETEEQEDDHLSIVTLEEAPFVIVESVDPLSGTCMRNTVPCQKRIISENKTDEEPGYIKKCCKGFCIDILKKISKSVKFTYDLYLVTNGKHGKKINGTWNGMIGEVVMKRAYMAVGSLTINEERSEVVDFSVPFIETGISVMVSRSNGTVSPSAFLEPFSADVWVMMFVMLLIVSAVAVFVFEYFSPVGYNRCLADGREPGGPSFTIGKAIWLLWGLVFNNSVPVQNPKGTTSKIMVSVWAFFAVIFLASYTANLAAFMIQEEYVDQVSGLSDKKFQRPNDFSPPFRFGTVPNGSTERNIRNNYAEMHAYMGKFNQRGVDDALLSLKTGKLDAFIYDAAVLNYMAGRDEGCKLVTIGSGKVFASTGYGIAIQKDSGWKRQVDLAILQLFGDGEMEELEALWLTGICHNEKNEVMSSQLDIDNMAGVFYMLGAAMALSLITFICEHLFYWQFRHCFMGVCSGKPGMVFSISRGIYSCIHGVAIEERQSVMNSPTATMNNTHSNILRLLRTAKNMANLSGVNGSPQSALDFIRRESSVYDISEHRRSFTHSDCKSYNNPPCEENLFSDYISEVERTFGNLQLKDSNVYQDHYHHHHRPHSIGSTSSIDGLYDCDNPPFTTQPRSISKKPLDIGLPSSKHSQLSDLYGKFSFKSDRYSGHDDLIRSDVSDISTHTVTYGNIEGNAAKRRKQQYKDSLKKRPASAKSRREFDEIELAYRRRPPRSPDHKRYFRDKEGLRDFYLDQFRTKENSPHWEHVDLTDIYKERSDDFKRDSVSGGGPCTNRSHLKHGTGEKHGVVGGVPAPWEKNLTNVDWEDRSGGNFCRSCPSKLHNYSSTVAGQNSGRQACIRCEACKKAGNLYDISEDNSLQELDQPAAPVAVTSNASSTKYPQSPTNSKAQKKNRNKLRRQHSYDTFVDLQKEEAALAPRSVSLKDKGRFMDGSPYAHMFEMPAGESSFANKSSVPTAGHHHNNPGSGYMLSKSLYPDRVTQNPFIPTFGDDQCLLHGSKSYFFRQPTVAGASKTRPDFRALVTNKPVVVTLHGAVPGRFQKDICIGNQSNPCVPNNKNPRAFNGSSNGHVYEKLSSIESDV
Protocol: as §4, §5, §6, §7

[6] = target: T5, carboxylesterase (CaE, EC 3.1.1.1, from porcine liver) (Sus scrofa, UniProt Q29550); assay: In vitro CaE inhibition (4-nitrophenyl acetate hydrolysis); type: biochemical; conditions: pH 8.0, 25 °C, 10 min preincubation, read-out: IC50 (μM) ± SEM CaE
T5 sequence (Q29550 19-566): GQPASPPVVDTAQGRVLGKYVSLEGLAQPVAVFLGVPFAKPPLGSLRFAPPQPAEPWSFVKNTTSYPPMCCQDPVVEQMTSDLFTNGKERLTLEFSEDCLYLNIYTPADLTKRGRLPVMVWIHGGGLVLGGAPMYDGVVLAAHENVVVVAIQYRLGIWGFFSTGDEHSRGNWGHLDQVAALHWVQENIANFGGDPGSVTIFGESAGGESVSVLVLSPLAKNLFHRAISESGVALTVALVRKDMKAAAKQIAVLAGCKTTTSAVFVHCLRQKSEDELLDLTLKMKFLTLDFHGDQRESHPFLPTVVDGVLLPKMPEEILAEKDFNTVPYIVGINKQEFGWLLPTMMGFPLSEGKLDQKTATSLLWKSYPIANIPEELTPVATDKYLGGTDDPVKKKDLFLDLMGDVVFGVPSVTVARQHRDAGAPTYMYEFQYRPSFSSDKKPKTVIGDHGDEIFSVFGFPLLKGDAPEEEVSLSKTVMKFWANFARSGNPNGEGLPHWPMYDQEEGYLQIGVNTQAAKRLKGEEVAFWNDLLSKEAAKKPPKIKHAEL
Protocol: as §1
The activity of CaE was determined spectrophotometrically by the release of 4-nitrophenol at 405 nm[51]. The assay solution consisted of 0.1 M K/Na phosphate buffer pH 8.0, 25 °C with the addition of 1 mM 4-nitrophenyl acetate and 0.02 unit/mL of CaE. Assays were carried out with a blank containing all components except CaE.
as §3

[7] = human erythrocyte AChE, pH 7.5, 25 °C, 10 min preincubation, read-out: IC50 (μM) ± SEM AChE
[8] = equine serum BChE, pH 7.5, 25 °C, 10 min preincubation, read-out: IC50 (μM) ± SEM BChE
[9] = rat hippocampal membranes, read-out: [3H]МК-801, IC50
[10] = rat hippocampal membranes, read-out: [3H]ifenprodil, IC50

Row | Structure (SMILES) | IC50 [1, 7] [µM] | times higher BChE inhibitory activity versus (C-2b) ([2]; comparison of IC50 values, 1-oxopropylene vs 2-hydroxypropylene spacer, same R1, R2) [times] | IC50 [2, 8] [µM] | αKi (non-competitive inhibition constant) [3] [µM] | Ki [3] [µM] | type of BChE inhibition [3] | IC50 [4] [µM] | % of [3H]МК-801 blockade at 100 μM of compound ([4]; rat hippocampal membranes) [%] | IC50 [5] [µM] | % of [3H]ifenprodil blockade at 100 μM of compound ([5]; rat hippocampal membranes) [%] | IC50 [6] [µM] | IC50 [4, 9] [µM] | IC50 [5, 10] [µM] | IC50 ([4]; read-out: [3H]МК-801, IC50, rat hippocampal membranes) [µM] | IC50 ([5]; read-out: [3H]ifenprodil, IC50, rat hippocampal membranes) [µM] | IC50 [1] [µM] | IC50 [2] [µM]
1 | CCN1CCc2c(c3cc(F)ccc3n2CCC(=O)N2c3ccccc3Sc3ccccc32)C1 [C-1f] | > 200 | 3.5 | 0.58 ± 0.06 | 0.52 ± 0.04 | 0.17 ± 0.02 | mixed-type inhibition; also recorded: mixed-type reversible inhibitors | 15.8 ± 1.8 | 82.4 ± 7.3 | 8.8 ± 1.8 | 78.2 ± 6.8 | – | – | – | – | – | – | –
2 | Cc1ccc2c(c1)c1c(n2CC(O)CN2c3ccccc3Sc3ccccc32)CCN(C)C1 (racemic) [C-2a] | – | – | 11.7 ± 0.4 | – | – | – | – | – | – | 69.7 ± 8.3 | > 200 | 84.8 ± 9.2 | 57.2 ± 6.7 | – | – | – | –
3 | CCN1CCc2c(c3cc(C)ccc3n2CCC(=O)N2c3ccccc3Sc3ccccc32)C1 [C-1b] | > 200 | – | 2.04 ± 0.55 | 1.46 ± 0.40 | 0.43 ± 0.05 | – | – | 95.7 ± 1.0 | – | 48.1 ± 5.9 | > 200 | 8.5 ± 0.8 | 74.4 ± 4 | – | – | – | –
4 | COc1ccc2c(c1)c1c(n2C[C@@H](O)CN2c3ccccc3Sc3ccccc32)CCN(C)C1 [C-2c] | – | – | 0.39 ± 0.02 | 0.89 ± 0.18 | 0.25 ± 0.04 | – | – | 19.1 ± 2.2 | – | 47.4 ± 6.6 | – | – | – | 113 ± 11.1 | 115 ± 9.3 | – | –
5 | CCN1CCc2c(c3ccccc3n2CCC(=O)N2c3ccccc3Sc3ccccc32)C1 [C-1e] | > 200 | – | 0.52 ± 0.01 | 0.65 ± 0.07 | 0.26 ± 0.02 | – | – | 76.1 ± 1.2 | – | 69.4 ± 3.3 | > 200 | 14.6 ± 1.9 | 13.4 ± 2.6 | – | – | – | –
6 | CCN1CCc2c(c3cc(F)ccc3n2CC(O)CN2c3ccccc3Sc3ccccc32)C1 (racemic) [C-2b] | – | – | 2.01 ± 0.04 | 2.98 ± 0.19 | 0.82 ± 0.02 | mixed-type inhibition; also recorded: mixed-type reversible inhibitors | – | 24.1 ± 1.9 | – | 25.7 ± 4.6 | > 200 | 106 ± 9.2 | 81.2 ± 6.7 | – | – | – | –
7 | Cc1ccc2c(c1)c1c(n2CCc2ccc(C)nc2)CCN(C)C1 [dimebon, reference compound] | – | – | – | – | – | – | – | 27.8 ± 3.9 | – | 34.1 ± 4.9 | – | 91.5 ± 7.7 | 82.4 ± 4.1 | – | – | 36.3 ± 5.8 | 5.76 ± 0.51
8 | CN1CCc2c(c3ccccc3n2CCC(=O)N2c3ccccc3Sc3ccccc32)C1 [C-1d] | > 200 | – | 1.07 ± 0.12 | 1.64 ± 0.20 | 0.37 ± 0.01 | – | – | 74.9 ± 1.1 | – | 60.1 ± 1.4 | > 200 | 18.5 ± 0.9 | 23.4 ± 0.7 | – | – | – | –
9 | Cc1ccc2c(c1)c1c(n2CCC(=O)N2c3ccccc3Sc3ccccc32)CCN(C)C1 [C-1a] | > 200 | – | 62.6 ± 4.3 | – | – | – | – | 80.4 ± 6.6 | – | 42.6 ± 7.2 | > 200 | 13.5 ± 3.6 | 88.4 ± 8.3 | – | – | – | –
10 | CC(C)c1ccc2c(c1)c1c(n2CCC(=O)N2c3ccccc3Sc3ccccc32)CCN(C)C1 [C-1h] | > 100 | – | 2.79 ± 0.09 | 1.94 ± 0.01 | – | non-competitive mechanism | – | 80.3 ± 6.9 | – | – | 120 ± 13 | 17.8 ± 2 | 85.8 ± 7.2 | – | – | – | –
11 | CN(C)c1ccc2nc3ccc(=[N+](C)C)cc-3sc2c1 [MB, methylene blue, reference compound] | – | – | – | 0.64 ± 0.02 | – | – | – | 2.0 ± 4.0 | – | – | – | – | – | – | – | – | –
12 | c1ccc2c(c1)Nc1ccccc1S2 [phenothiazine] | – | – | – | – | – | – | – | – | – | – | – | – | – | – | – | – | 137 ± 31
13 | O=[N+]([O-])c1ccc(OP(=O)(O)Oc2ccc([N+](=O)[O-])cc2)cc1 [BNPP, Bis-4-nitrophenyl phosphate, reference compound] | – | – | – | – | – | – | – | – | – | – | 1.8 ± 0.11 | – | – | – | – | – | –
